Tested on: CD1 female mouse brain lipidome
Assay: Brain-region lipid levels (HPLC/MS/MS lipidomics) 2 h after single i.p. 3 mg/kg CP 55,940 vs vehicle
Type: in vivo
Details: cerebellum
Experimental: The Bloomington Institutional Animal Care and Use Committee of Indiana University reviewed and approved the animal procedures. Female mice from the CD1 strain were utilized to match our study examining THC’s effects on the brain lipidome ([Leishman et al., 2018]). Mice were given a single i.p. injection of either 3 mg/kg CP or 1:1:18 cremophor:ethanol:saline vehicle (please refer to the section “3 mg/kg CP Is Relevant for Synthetic Cannabinoid Abuse and Has Stronger Effects on the Female Mouse Brain Lipidome During Adolescence” for a justification of dose and use of female mice). Three different age groups were given injections: PND 35 and PND 50 adolescents, and adult mice (PND 113). At least eight mice in each age group received CP and at least eight received vehicle. Matching the THC study time course ([Leishman et al., 2018]), mice were sacrificed via rapid decapitation 2 h after injection. Brains were immediately removed and flash-frozen in liquid nitrogen, and then stored at -80°C until dissections were performed. Brains were dissected on an ice-cold dissection plate into the following regions: STR, HIPP, CER, THAL, CTX, HYP, MID, and STEM. These abbreviations for these brain areas will be used exclusively when discussing the results generated by these specific dissections. Each dissected area was immediately placed in liquid nitrogen and then stored at -80°C until used for lipid extraction.
Tissue extracts were performed as previously described ([Bradshaw et al., 2006]; [Stuart et al., 2013]; [Raboune et al., 2014]; [Leishman et al., 2016a],[b], [2017], [2018]). First, samples were shock frozen in liquid nitrogen, weighed, and transferred to a centrifuge tube. The mass of the largest sample was multiplied by 50 to determine how many milliliters of HPLC-grade methanol (Fisher, Fair Lawn, NJ, United States) to add. Then, samples were spiked with 500 pmol deuterium-labeled NAGly (d8NAGly; Cayman Chemical, Ann Arbor, MI, United States). Samples were placed on ice in darkness for 2 h then individually homogenized and centrifuged at 19,000 × g for 20 min at 20°C. Supernatants were diluted with HPLC water (purified in house) to make a solution of 75% water, 25% supernatant. Lipids were partially purified on C18 solid phase extraction columns (Agilent, Palo Alto, CA, United States). A series of four elutions with 1.5 mL of 60%, 75%, 85%, and 100% methanol were collected ([Stuart et al., 2013]; [Leishman et al., 2016a],[b], [2018]).
As previously described ([Bradshaw et al., 2006]; [Tan et al., 2006]; [Smoum et al., 2010]; [Stuart et al., 2013]; [Tortoriello et al., 2013]; [Raboune et al., 2014]; [Leishman et al., 2016a],[b], [2017], [2018]), samples were analyzed using an Applied Biosystems API 3000 triple quadrupole mass spectrometer with electrospray ionization (Foster City, CA, United States). Using an Agilent XDB-C18 reversed phase analytical column and optimized mobile phase gradients, 20 μL from each elution were chromatographed. Two Shimadzu 10ADvp pumps (Columbia, MD, United States) provided the pressure for gradient elution. Mobile phase A: 20% methanol, 80% water (v/v) and 1 mM ammonium acetate (Sigma, St. Louis, MO, United States). Mobile phase B: 100% methanol, 1 mM ammonium acetate. Every method run began with 0% mobile phase B, reached 100% mobile phase B flowing at 0.2 mL/min, and gradually returned to 0% mobile phase B.
This screening library will be referred to as the lipidome when discussing data from this study. HPLC/MS/MS data were analyzed using Analyst software (Applied Biosystems) ([Bradshaw et al., 2006]; [Tan et al., 2006]; [Stuart et al., 2013]; [Tortoriello et al., 2013]; [Raboune et al., 2014]; [Leishman et al., 2016a],[b], [2017], [2018]). Chromatograms (Supplementary Figure 3) were generated by determining the retention time of analytes from the analytical column with a [M-1] or [M+1] parent peak and a fragmentation peak corresponding to the programmed values. […]

[1] = WT adult female mice, 3mg/kg CP 55,940

CCCCCCC(C)(C)c1ccc([C@@H]2C[C@H](O)CC[C@H]2CCCO)c(O)c1 [CP 55,940] was tested, and the “N-palmitoyl serine level, Mean” value [1] was 5.77E-12, the “N-palmitoyl tyrosine level, Mean” value [1] was 9.82E-13 and the “N-palmitoyl valine level, Mean” value [1] was 1.08E-13. The “N-stearoyl GABA level, Mean” value [1] was 1.12E-11, the “N-stearoyl alanine level, Mean” value [1] was 5.69E-12 and the “N-stearoyl ethanolamine level, Mean” value [1] was 1.6E-11. The “N-stearoyl glycine level, Mean” value [1] was 1.62E-12, the “N-stearoyl leucine level, Mean” value [1] was 1.18E-12 and the “N-stearoyl methionine level, Mean” value [1] was 3.32E-13. The “N-stearoyl phenylalanine level, Mean” value [1] was 2.74E-13, the “N-stearoyl serine level, Mean” value [1] was 1.52E-11 and the “Oleic acid level, Mean” value [1] was 6.36E-10. For the same compound, the “PGE2 level, Mean” value [1] was 2.14E-10, the “PhosphoLEA level, Mean” value [1] was 4.64E-12 and the “2-arachidonoyl glycerol: Direction (relative to Veh)” value (adult, 3 mg/kg CP 55,940) was “↓”. The “2-arachidonoyl glycerol: Magnitude (x Veh level)” value (adult, 3 mg/kg CP 55,940) was 0.81 x Veh level, the “2-linoleoyl glycerol: Direction (relative to Veh)” value (adult, 3 mg/kg CP 55,940) was “↓” and the “2-linoleoyl glycerol: Magnitude (x Veh level)” value (adult, 3 mg/kg CP 55,940) was 0.66 x Veh level. For the same compound, the “2-oleoyl glycerol: Direction (relative to Veh)” value (adult, 3 mg/kg CP 55,940) was “↓”, the “2-oleoyl glycerol: Magnitude (x Veh level)” value (adult, 3 mg/kg CP 55,940) was 0.74 x Veh level and the “6-ketoPGF1α: Direction (relative to Veh)” value (adult, 3 mg/kg CP 55,940) was “↓”. The “6-ketoPGF1α: Magnitude (x Veh level)” value (adult, 3 mg/kg CP 55,940) was 0.68 x Veh level, the “Arachidonic acid: Direction (relative to Veh)” value (adult, 3 mg/kg CP 55,940) was “↓” and the “Arachidonic acid: Magnitude (x Veh level)” value (adult, 3 mg/kg CP 55,940) was 0.67 x Veh level. For the same compound, the “Linoleic acid: Direction (relative to Veh)” value (adult, 3 mg/kg CP 55,940) was “↓”, the “Linoleic acid: Magnitude (x Veh level)” value (adult, 3 mg/kg CP 55,940) was 0.63 x Veh level and the “N-arachidonoyl GABA: Direction (relative to Veh)” value (adult, 3 mg/kg CP 55,940) was “↓”. For the same compound, the “N-arachidonoyl GABA: Magnitude (x Veh level)” value (adult, 3 mg/kg CP 55,940) was 0.65 x Veh level, the “N-arachidonoyl ethanolamine: Direction (relative to Veh)” value (adult, 3 mg/kg CP 55,940) was “↓” and the “N-arachidonoyl ethanolamine: Magnitude (x Veh level)” value (adult, 3 mg/kg CP 55,940) was 0.63 x Veh level. The “N-arachidonoyl phenylalanine: Direction (relative to Veh)” value (adult, 3 mg/kg CP 55,940) was “↓”, the “N-arachidonoyl phenylalanine: Magnitude (x Veh level)” value (adult, 3 mg/kg CP 55,940) was 0.41 x Veh level and the “N-arachidonoyl taurine: Direction (relative to Veh)” value (adult, 3 mg/kg CP 55,940) was “↓”. For the same compound, the “N-arachidonoyl taurine: Magnitude (x Veh level)” value (adult, 3 mg/kg CP 55,940) was 0.77 x Veh level, the “N-docosahexaenoyl GABA: Direction (relative to Veh)” value (adult, 3 mg/kg CP 55,940) was “↓” and the “N-docosahexaenoyl GABA: Magnitude (x Veh level)” value (adult, 3 mg/kg CP 55,940) was 0.83 x Veh level. The “N-docosahexaenoyl ethanolamine: Direction (relative to Veh)” value (adult, 3 mg/kg CP 55,940) was “↓”, the “N-docosahexaenoyl ethanolamine: Magnitude (x Veh level)” value (adult, 3 mg/kg CP 55,940) was 0.73 x Veh level and the “N-linoleoyl GABA: Direction (relative to Veh)” value (adult, 3 mg/kg CP 55,940) was “↓”. The “N-linoleoyl GABA: Magnitude (x Veh level)” value (adult, 3 mg/kg CP 55,940) was 0.83 x Veh level, the “N-linoleoyl ethanolamine: Direction (relative to Veh)” value (adult, 3 mg/kg CP 55,940) was “↓” and the “N-linoleoyl ethanolamine: Magnitude (x Veh level)” value (adult, 3 mg/kg CP 55,940) was 0.64 x Veh level. The “N-oleoyl serine: Direction (relative to Veh)” value (adult, 3 mg/kg CP 55,940) was “↓”, the “N-oleoyl serine: Magnitude (x Veh level)” value (adult, 3 mg/kg CP 55,940) was 0.72 x Veh level and the “N-oleoyl valine: Direction (relative to Veh)” value (adult, 3 mg/kg CP 55,940) was “↑”. The “N-oleoyl valine: Magnitude (x Veh level)” value (adult, 3 mg/kg CP 55,940) was 2.05 x Veh level, the “N-palmitoyl tyrosine: Direction (relative to Veh)” value (adult, 3 mg/kg CP 55,940) was “↓” and the “N-palmitoyl tyrosine: Magnitude (x Veh level)” value (adult, 3 mg/kg CP 55,940) was 0.74 x Veh level. For the same compound, the “Oleic acid: Direction (relative to Veh)” value (adult, 3 mg/kg CP 55,940) was “↓”, the “Oleic acid: Magnitude (x Veh level)” value (adult, 3 mg/kg CP 55,940) was 0.63 x Veh level and the “PGE2: Direction (relative to Veh)” value (adult, 3 mg/kg CP 55,940) was “↓”.

Reference: PMC6277767, “Broad and Region-Specific Impacts of the Synthetic Cannabinoid CP 55,940 in Adolescent and Adult Female Mouse Brains” (Frontiers in Molecular Neuroscience, 2018)
